Reference: patent US5618844A, “Hydroxamic acid and carboxylic acid derivatives, process for their preparation and use thereof” (Sanofi S.A., priority 1995, dated 1997)

How the values were obtained:
Format in all cases: biochemical
[1] = molecular target: T1, Human Fibroblast Stromelysin (Homo sapiens, UniProt P08254); test: inhibition of recombinant MMP, peptide substrate assay with fluorescamine detection (HFS)
T1 construct: expressed as mature enzymes with C-terminal truncations, Phe83-Thr260 and Met100-Gly262, respectively; made in house
T1 sequence (P08254 100-277): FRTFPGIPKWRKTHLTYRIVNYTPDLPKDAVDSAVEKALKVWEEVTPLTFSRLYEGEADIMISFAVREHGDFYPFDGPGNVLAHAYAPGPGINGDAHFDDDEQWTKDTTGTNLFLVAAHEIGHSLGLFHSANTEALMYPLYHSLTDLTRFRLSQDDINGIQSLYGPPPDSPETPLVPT

[2] = molecular target: T2, Human Fibroblast Collagenase (Homo sapiens, UniProt P03956); test: inhibition of recombinant MMP, peptide substrate assay with fluorescamine detection (HFC); conditions: calculated from measured percent inhibition using Km, assuming competitive inhibition; Met1-Pro250 proenzyme, activated with p-aminophenylmercury
T2 construct: All active MMPs are purified by gel filtration; made in house
T2 sequence (P03956 100-269 limits assumed): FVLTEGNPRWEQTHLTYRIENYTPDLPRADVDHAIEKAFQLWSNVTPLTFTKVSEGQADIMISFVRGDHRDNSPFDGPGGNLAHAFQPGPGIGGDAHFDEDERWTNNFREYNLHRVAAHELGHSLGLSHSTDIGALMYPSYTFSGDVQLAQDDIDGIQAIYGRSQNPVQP

[3] = molecular target: T3, Human Neutrophil Collagenase (Homo sapiens, UniProt P22894); test: inhibition of recombinant MMP, peptide substrate assay with fluorescamine detection (HNC); conditions: calculated from measured percent inhibition using Km, assuming competitive inhibition; Met100-Gly262
T3 construct: expressed as mature enzymes with C-terminal truncations, Phe83-Thr260 and Met100-Gly262, respectively; made in house
T3 sequence (P22894 100-262): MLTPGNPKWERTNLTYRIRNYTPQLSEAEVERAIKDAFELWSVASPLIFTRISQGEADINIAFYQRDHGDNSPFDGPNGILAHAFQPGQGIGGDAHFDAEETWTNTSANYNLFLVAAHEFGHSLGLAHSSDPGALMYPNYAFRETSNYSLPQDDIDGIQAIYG

SMILES	Ki [1] [nM]	Ki [2] [nM]	Ki [3] [nM]
CNC(=O)[C@@H](NC(=O)[C@H](CCCCOc1cccc(C)c1)CC(=O)O)C(C)(C)C [Example 19, (2S)-N-2'-[(2'R)-2'-(carboxymethyl)-6'-(3-methylphenoxy)hexanoyl]amino-3,3-dimethylbutanoic acid N-methylamide]	220	1800	
CNC(=O)[C@H](Cc1ccccc1)NC(=O)[C@H](CCCOCc1ccccc1)CC(=O)NO [Example 10, N-[(2R)-2-[2'-(Hydroxyamino)-2'-(oxo)ethyl]-5-(phenylmethoxy)pentanoyl]-L-phenylalanine N-methylamide]		2270	
CNC(=O)[C@@H](NC(=O)[C@H](CCCCOCc1ccccc1)CC(=O)NO)C(C)(C)C [Example 8, (2S)-N-2-[(2'R)-2'-[2"-(Hydroxyamino)-2"-(oxo)ethyl]-6'-(phenylmethoxy)hexanoyl]amino-3,3-dimethylbutanoic acid N-methylamide]	57	1400	5
CNC(=O)[C@H](Cc1ccccc1)NC(=O)[C@H](CCCCOc1ccccc1)CC(=O)NO [Example 13, N-[(2R)-2-[2'-(Hydroxyamino)-2'-(oxo)ethyl]-6-(phenoxy)-hexanoyl]-L-phenylalanine N-methylamide]		8	
CCCC(=O)NCCCC[C@H](CC(=O)NO)C(=O)N[C@@H](Cc1ccccc1)C(=O)NC [Example 12]		1600	120
CNC(=O)[C@@H](NC(=O)[C@H](CCCCOc1ccc(Cl)cc1)CC(=O)NO)C(C)(C)C [Example 17, (2S)-N-2'-[(2'R)-2'-[2"-(Hydroxyamino)-2"-(oxo)ethyl]-6'-(4-chlorophenoxy)hexanoyl]amino-3,3-dimethylbutanoic acid N-methylamide]		21	
CNC(=O)[C@H](Cc1ccccc1)NC(=O)[C@H](CCCCCOCc1ccccc1)CC(=O)NO [Example 11, N-[(2R)-2-[2'-(Hydroxyamino)-2'-(oxo)ethyl]-7-(phenylmethoxy)heptanoyl]-L-phenylalanine N-methylamide]		920	4
CNC(=O)[C@H](Cc1ccccc1)NC(=O)[C@H](CCCCO)CC(=O)NO [Example 3, N-[(2R)-2-[2'-(hydroxyamino)-2'-(oxo)ethyl]-6-(hydroxy)hexanoyl]-L-phenylalanine N-methylamide]		30	7
CNC(=O)[C@@H](NC(=O)[C@H](CCCCOc1ccc(C)cc1)CC(=O)NO)C(C)(C)C [Example 16, (2S)-N-2'-[(2'R)-2'-[2"-(Hydroxyamino)-2"-(oxo)ethyl]-6'-(4-methylphenoxy)hexanoyl]amino-3,3-dimethylbutanoic acid N-methylamide]		14	
CNC(=O)[C@H](Cc1ccccc1)NC(=O)[C@H](CCCC(C)O)CC(=O)NO (stereo partly drawn) [Example 6, N-[(2R)-2-[2'-(Hydroxyamino)-2'-(oxo)ethyl]-(6RS)-6-(hydroxy)heptanoyl]-L-phenylalanine N-methylamide]	1500	150	20
CCCNC(=O)CCC[C@H](CC(=O)NO)C(=O)N[C@@H](Cc1ccccc1)C(=O)NC [Example 5, N-[(2R)-2-[2'-(Hydroxyamino)-2'-(oxo)ethyl]-6-(propylamino)-6-(oxo)hexanoyl]-L-phenylalanine N-methylamide]		5100	< 2
CNC(=O)[C@@H](NC(=O)[C@H](CCCCO)CC(=O)NO)C(C)(C)C [Example 9, (2S)-N-2-[(2'R)-2'-[2"-(Hydroxyamino)-2"-(oxo)ethyl]-6'-(hydroxy)hexanoyl]amino-3,3-dimethylbutanoic acid N-methylamide]	5000	27	17
CNC(=O)[C@@H](NC(=O)[C@H](CCCC(=O)NCCc1ccccc1)CC(=O)NO)C(C)(C)C [Example 15, (2S)-N-2'-[(2'R)-2'-[2"-(Hydroxyamino)-2"-(oxo)ethyl]-6'-(2-phenethylamino)-6' (oxo)hexanoyl]amino-3,3-dimethylbutanoic acid N-methylamide]	26	35	16
CNC(=O)[C@H](Cc1ccccc1)NC(=O)[C@H](CCCC(=O)O)CC(=O)NO [Example 4, N-[(2R)-2-[2'-(Hydroxyamino)-2'-(oxo)ethyl]-5-(carboxy)pentanoyl]-L-phenylalanine N-methylamide]			270
CNC(=O)[C@H](Cc1ccccc1)NC(=O)[C@H](CCCCOCc1ccccc1)CC(=O)NO [Example 2, N-[(2R)-2-[2'-(Hydroxyamino)-2'(oxo)ethyl]-6-(phenylmethoxy)hexanoyl]-L-phenylalanine N-methylamide]		1450	
